The results in this text go back to PubChem BioAssay (NCI).

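1) Cells in 96-well plates. 2) Compound, 48 h, 5 concentrations. 3) Linear interpolation between surrounding doses. 4) Unreached endpoint = highest concentration. TGI marks complete inhibition of growth.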

For the first experiment, the system named is SK-MEL-28 melanoma. Nature of the experiment: NCI tumour cell line growth inhibition, 48 h.
In turn, `CN(C)CCNC(=O)c1cccc2c(=O)c3ccccc3oc12` had a TGI of over 100 µM.
Still for that read-out and setting: next, `CCCCCCCCCCCCCP(=O)(O)O`: over 100 µM; `O=C(O)CCC1CCc2cccc(O)c2C1=O` (centres undefined): over 100 µM.

The subject of another experiment is SK-MEL-5 melanoma. As to the kind of experiment: NCI tumour cell line growth inhibition, 48 h.
As to `Cc1ccc(S(=O)(=O)N/N=C2\CCCCC23CCC(=O)NC3)cc1` (centres undefined), the TGI is over 100 µM.
On the same count and under the same terms, next, `CN(C)CCNC(=O)c1cccc2c(=O)c3ccccc3oc12`: 60.5 µM; `CCCCCCCCCCCCCP(=O)(O)O`: over 100 µM.

In the next experiment the test system is SK-OV-3 ovarian. As to the kind of experiment: NCI tumour cell line growth inhibition, 48 h.
`Cc1ccc(S(=O)(=O)N/N=C2\CCCCC23CCC(=O)NC3)cc1` (centres undefined) showed a TGI of over 100 µM.
On the same count and under the same terms, next, `CN(C)CCNC(=O)c1cccc2c(=O)c3ccccc3oc12`: over 100 µM; `CCCCCCCCCCCCCP(=O)(O)O`: over 100 µM; `O=C(O)CCC1CCc2cccc(O)c2C1=O` (centres undefined): over 100 µM.

The subject of the next experiment is SN12C renal. As to the kind of experiment: NCI tumour cell line growth inhibition, 48 h.
In turn, `Cc1ccc(S(=O)(=O)N/N=C2\CCCCC23CCC(=O)NC3)cc1` (centres undefined) showed a TGI of over 100 µM.
`CN(C)CCNC(=O)c1cccc2c(=O)c3ccccc3oc12` showed a TGI of over 78.7 µM.
Same read-out and setting: in the case of `CCCCCCCCCCCCCP(=O)(O)O` it was over 100 µM; in that of `O=C(O)CCC1CCc2cccc(O)c2C1=O` (centres undefined), over 100 µM.

In the next experiment the test system is SN12K1 renal. Nature of the experiment: NCI tumour cell line growth inhibition, 48 h.
In turn, `CN(C)CCNC(=O)c1cccc2c(=O)c3ccccc3oc12` came in with a TGI of 47.5 µM.

The subject of a further experiment is SNB-19 CNS. Nature of the experiment: NCI tumour cell line growth inhibition, 48 h.
Regarding `Cc1ccc(S(=O)(=O)N/N=C2\CCCCC23CCC(=O)NC3)cc1` (centres undefined), the TGI is over 100 µM.
The same measure, in the same setting: in the case of `CN(C)CCNC(=O)c1cccc2c(=O)c3ccccc3oc12` it was 97.7 µM.
The compound `CCCCCCCCCCCCCP(=O)(O)O` had a TGI of over 100 µM.
On the same count and under the same terms, in the case of `O=C(O)CCC1CCc2cccc(O)c2C1=O` (centres undefined) it was over 100 µM.

In the next experiment the test system is SNB-75 CNS. Nature of the experiment: NCI tumour cell line growth inhibition, 48 h.
Compound `Cc1ccc(S(=O)(=O)N/N=C2\CCCCC23CCC(=O)NC3)cc1` (centres undefined) registered a TGI of over 100 µM.
`CN(C)CCNC(=O)c1cccc2c(=O)c3ccccc3oc12` returned a TGI of over 87.3 µM.
Same read-out and setting: in the case of `CCCCCCCCCCCCCP(=O)(O)O` it was over 100 µM.

A further experiment deals with SNB-78 CNS. As to the kind of experiment: NCI tumour cell line growth inhibition, 48 h.
Consider `Cc1ccc(S(=O)(=O)N/N=C2\CCCCC23CCC(=O)NC3)cc1` (centres undefined), for which the TGI is over 100 µM.
The compound `CN(C)CCNC(=O)c1cccc2c(=O)c3ccccc3oc12` displayed a TGI of over 100 µM.
The same measure, in the same setting: in the case of `CCCCCCCCCCCCCP(=O)(O)O` it was over 100 µM.
As for `O=C(O)CCC1CCc2cccc(O)c2C1=O` (centres undefined), the TGI is over 100 µM.

The next experiment deals with SR leukemia. As to the kind of experiment: NCI tumour cell line growth inhibition, 48 h.
`Cc1ccc(S(=O)(=O)N/N=C2\CCCCC23CCC(=O)NC3)cc1` (centres undefined) displayed a TGI of over 100 µM.

The test system of the next experiment is SW-620 colon. As to the kind of experiment: NCI tumour cell line growth inhibition, 48 h.
`Cc1ccc(S(=O)(=O)N/N=C2\CCCCC23CCC(=O)NC3)cc1` (centres undefined) displayed a TGI of over 100 µM.
The same measure, in the same setting: next, `CN(C)CCNC(=O)c1cccc2c(=O)c3ccccc3oc12`: over 100 µM; `CCCCCCCCCCCCCP(=O)(O)O`: over 100 µM.

A further experiment deals with TK-10 renal. Nature of the experiment: NCI tumour cell line growth inhibition, 48 h.
Consider `Cc1ccc(S(=O)(=O)N/N=C2\CCCCC23CCC(=O)NC3)cc1` (centres undefined), for which the TGI is over 100 µM.
Still for that read-out and setting: in the case of `CCCCCCCCCCCCCP(=O)(O)O` it was over 100 µM.

A further experiment has as its system U251 CNS. As to the kind of experiment: NCI tumour cell line growth inhibition, 48 h.
The compound `Cc1ccc(S(=O)(=O)N/N=C2\CCCCC23CCC(=O)NC3)cc1` (centres undefined) gave a TGI of over 100 µM.
Still for that read-out and setting: next, `CN(C)CCNC(=O)c1cccc2c(=O)c3ccccc3oc12`: over 100 µM.
The same measure, in the same setting: in the case of `CCCCCCCCCCCCCP(=O)(O)O` it was over 100 µM.
The compound `O=C(O)CCC1CCc2cccc(O)c2C1=O` (centres undefined) had a TGI of over 100 µM.

The subject of the next experiment is UACC-257 melanoma. As to the kind of experiment: NCI tumour cell line growth inhibition, 48 h.
In turn, `Cc1ccc(S(=O)(=O)N/N=C2\CCCCC23CCC(=O)NC3)cc1` (centres undefined) registered a TGI of over 100 µM.
In turn, `CN(C)CCNC(=O)c1cccc2c(=O)c3ccccc3oc12` came in with a TGI of 74.4 µM.
Take `CCCCCCCCCCCCCP(=O)(O)O`: the TGI was over 100 µM.

The next experiment deals with UACC-62 melanoma. As to the kind of experiment: NCI tumour cell line growth inhibition, 48 h.
For the compound `Cc1ccc(S(=O)(=O)N/N=C2\CCCCC23CCC(=O)NC3)cc1` (centres undefined), the TGI was over 100 µM.
The same measure, in the same setting: next, `CN(C)CCNC(=O)c1cccc2c(=O)c3ccccc3oc12`: over 76.2 µM; `CCCCCCCCCCCCCP(=O)(O)O`: over 100 µM.
On the same count and under the same terms, in the case of `O=C(O)CCC1CCc2cccc(O)c2C1=O` (centres undefined) it was over 100 µM.

The test system of another experiment is UO-31 renal. As to the kind of experiment: NCI tumour cell line growth inhibition, 48 h.
As for `Cc1ccc(S(=O)(=O)N/N=C2\CCCCC23CCC(=O)NC3)cc1` (centres undefined), the TGI is over 100 µM.
Same read-out and setting: next, `CN(C)CCNC(=O)c1cccc2c(=O)c3ccccc3oc12`: 55 µM.
Still for that read-out and setting: in the case of `CCCCCCCCCCCCCP(=O)(O)O` it was over 100 µM.

A further experiment concerns XF 498 CNS. Nature of the experiment: NCI tumour cell line growth inhibition, 48 h.
`CN(C)CCNC(=O)c1cccc2c(=O)c3ccccc3oc12` gave a TGI of over 93.9 µM.
On the same count and under the same terms, next, `CCCCCCCCCCCCCP(=O)(O)O`: over 100 µM; `O=C(O)CCC1CCc2cccc(O)c2C1=O` (centres undefined): over 100 µM.
